Consider seven compounds from publication PMC2753751 (Bioorganic & medicinal chemistry letters, 2009).

As usually defined, the IC50 is the concentration at which inhibition is half-maximal.

For data set [1], the system named is A549 human lung carcinoma cell line. In words: cytotoxicity with A549 cell monolayers. The format is cell-based.
Data set [2] has as its system Pneumocystis carinii. The note with it: read-out: IC50 P. carinii; P. carinii obtained from rat lungs; ref [15]; cited from earlier work.
The subject of data set [3] is Pneumocystis carinii. In words: in vitro inhibition of Pneumocystis carinii. The format is cell-based. The note with it: ratio of cytotoxic A549 IC50 to P. carinii IC50.
The subject of another data set is Pneumocystis. The note with it: immunosuppressed mouse, 20 mg/kg and 40 mg/kg doses; ref [1]; cited from earlier work.
Data set [4] concerns Trypanosoma brucei rhodesiense KETRI 243. In words: in vitro inhibition of Trypanosoma brucei rhodesiense. The format is cell-based. The note with it: T.b. rhodesiense KETRI 243 versus T.b. brucei LAB 110.

`N=C(N)c1ccc(NC(=O)CCCCC(=O)Nc2cccc(C(=N)N)c2)cc1` [Compound 8]: in data set [1], the “cytotoxicity against the A549 cell line (in words)” value (shortened to “cytotoxicity”) was “very low cytoxicity”. As for `N=C(N)c1ccc(NC(=O)CCCCCC(=O)Nc2ccc(C(=N)N)cc2)cc1` [Compound 9], the “cytotoxicity” value in data set [1] is on record as “very low cytoxicity”. The same measure, in the same setting: the same measure for `N=C(N)c1ccc(NC(=O)CCCCCCC(=O)Nc2ccc(C(=N)N)cc2)cc1` [Compound 10]: “very low cytoxicity”; for `N=C(N)c1ccc(NC(=O)CCCCCCCCC(=O)Nc2ccc(C(=N)N)cc2)cc1` [Compound 12]: “very low cytoxicity”. `N=C(N)c1ccc(OCCCCCOc2ccc(C(=N)N)cc2)cc1` [Pentamidine, reference compound]: the IC50 in the data set with Pneumocystis carinii [2] was 0.5 µM. For the compound “N,N′-bis[4-(aminoiminomethyl)phenyl] hexanediamide [Compound 4]”, the half-inhibitory concentration (IC50) in data set [1] is 1190 µM; with Pneumocystis carinii [2] it was 0.002 µM. Moreover, the “selectivity index for P. carinii (SIP.c)” value in the data set with Pneumocystis carinii [3] is on record as 596,500. “N,N′-bis[4-(aminoiminomethyl)phenyl] pentanediamide, dihydrochloride salt [Compound 2]”: the “reductions in organism burden” value in the data set with Pneumocystis is on record as > 1,000 fold. Besides, the “fold less active against the resistant strain” value in data set [4] is recorded as “about 11 fold”. In data set [1], the “cytotoxicity” value is listed as “very low cytoxicity”. Besides, the IC50 in the data set on Pneumocystis carinii [2] is 0.003 µM. For the same compound, the “selectivity index for P. carinii (SIP.c)” value with Pneumocystis carinii [3] is 758,667.
